pIC50: −log10 of the molar value. Activity calls are given as the source filed them.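 The calls were made as follows: active = maximal inhibition of USP17 at or above 30% in the confirmation dose-response, a value not among the printed readouts; inactive = the rest.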
target: Ubiquitin carboxyl-terminal hydrolase 17-like protein 5 (Homo sapiens) (UniProt A8MUK1); assay: ubiquitin-specific protease 17 inhibitors, concentration series, biochemical, verification of primary actives (AID 1645864); conditions: purified USP17, ubiquitin-rhodamine cleavage fluorescence, 3 h
Sequence (A8MUK1 whole entry, looked up): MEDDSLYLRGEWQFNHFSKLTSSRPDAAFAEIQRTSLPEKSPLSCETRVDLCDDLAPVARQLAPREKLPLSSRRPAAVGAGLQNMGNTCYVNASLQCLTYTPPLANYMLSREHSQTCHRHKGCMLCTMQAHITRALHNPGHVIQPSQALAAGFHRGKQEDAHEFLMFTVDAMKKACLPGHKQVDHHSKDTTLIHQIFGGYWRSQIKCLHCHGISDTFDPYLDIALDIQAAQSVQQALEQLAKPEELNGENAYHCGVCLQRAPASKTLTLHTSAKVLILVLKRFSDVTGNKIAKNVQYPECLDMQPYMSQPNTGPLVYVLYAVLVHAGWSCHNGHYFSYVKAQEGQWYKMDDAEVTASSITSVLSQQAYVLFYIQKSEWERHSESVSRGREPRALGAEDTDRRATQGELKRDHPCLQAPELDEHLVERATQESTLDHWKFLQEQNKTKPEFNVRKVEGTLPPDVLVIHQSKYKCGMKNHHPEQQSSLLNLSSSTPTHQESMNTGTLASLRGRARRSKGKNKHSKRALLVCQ

SMILES | pIC50 | IC50
COc1ccc(OC)c(C2CC(=O)Nc3n[nH]c(-c4ccccc4)c32)c1 (stereo not drawn) | 4.61 | –
COc1ccc(NC(=O)c2nnn(-c3ccccc3F)c2C)cc1OC | – | > 50 µM (inactive)
Cc1csc2ncc(C(=O)N3CCN(c4ccccc4F)CC3)c(=O)n12 | – | > 50 µM (inactive)
Cc1ccccc1Cc1nc(-c2ccc(=O)[nH]c2)no1 | – | > 50 µM (inactive)
O=C(Nc1cccc(F)c1)C1CCCN(S(=O)(=O)N2CCCCCC2)C1 (stereo not drawn) | 4.40 | –
O=C(CCn1c(=O)c2ccccc2n(Cc2cc(=O)n3ccccc3n2)c1=O)NCCc1ccc(Cl)cc1 | 4.50 | –
CCc1ccc2[nH]c(=O)c(CN(CCc3ccc(OC)c(OC)c3)C(=O)Nc3ccccc3)cc2c1 | – | > 50 µM (inactive)
Cc1cc(C)c2c(-n3cccc3)c(C(=O)NCCc3ccc(S(N)(=O)=O)cc3)sc2n1 | – | > 50 µM (inactive)
CC(C)(C)N=C1Nc2ncccc2NC12CCCN(C(=O)c1ccccc1)C2 (stereo not drawn) | – | > 50 µM (inactive)
COc1ccccc1CNC(=O)Nc1cccc2ccccc12 | 4.41 | –
COc1ccc(Cn2cnc3c([nH]c4ccc(Br)cc43)c2=O)cc1 | 6.11 | –
O=C(CNC(=O)c1cccc(F)c1)Nc1nc2ccccc2[nH]1 | 4.72 | –
COc1cc(COc2ccc3c(C)c(CC(=O)N4CC[C@@]5(O)CCCC[C@H]5C4)c(=O)oc3c2C)cc(OC)c1OC | 4.41 | –
CCCc1nc2sc3c(N(CC)CC)ncnc3c2c2c1CCC2 | – | > 50 µM (inactive)
O=C(CNS(=O)(=O)c1ccc(F)cc1)N1CCCC(c2nnc3ccccn23)C1 (stereo not drawn) | – | > 50 µM (inactive)
Cc1ccc([N+](=O)[O-])cc1S(=O)(=O)Nc1cc2sc(=O)oc2c2ccccc12 | 5.46 | –
CCOc1ccc(Nc2cc(C(=O)NCCc3ccccc3)c3ccccc3n2)cc1 | 4.62 | –
Cc1cc(C)c(O)c(-c2cc(C(=O)Nc3ccccc3Cl)[nH]n2)c1 | 5.76 | –
Cc1c(C(=O)c2ccccc2)c2ccccn2c1CCc1ccccn1 | – | > 50 µM (inactive)
O=C(/C=C/c1ccc(F)cc1)Nc1ccc2c(c1)OCCO2 | – | > 50 µM (inactive)
O=C(CC1Oc2ccccc2NC1=O)Nc1ccccc1Br (stereo not drawn) | 4.48 | –
COc1cccc(CCNC(=O)CCn2c(=O)c(C)nc3cc(C)c(C)cc32)c1 | – | > 50 µM (inactive)
NS(=O)(=O)c1cc(C(=O)OCC(=O)NC2CCCc3ccccc32)ccc1Cl (stereo not drawn) | 4.32 | –
COc1ccc(-c2nc(SCC(=O)Nc3ccc(Cl)cc3F)n[nH]2)cc1 | 4.32 | –

SMILES | pIC50 | IC50
O=C(NCCc1ccccc1F)c1cn2cc(Cl)ccc2n1 | 4.54 | –
O=C(COc1cccc2ccc(N3CCC(Cc4ccccc4)CC3)nc12)NCc1ccc(F)cc1 | 4.67 | –
CS(=O)(=O)N1CCCc2cc(C(=O)Nc3ccc(Oc4ccccc4)cc3)ccc21 | – | > 50 µM (inactive)
O=C(CCCCn1c(=O)c2ccccc2n(CC(=O)Nc2ccc(F)c(Cl)c2)c1=O)NCc1ccco1 | – | > 50 µM (inactive)
Cc1ccccc1OCCSc1nc2ccccc2n1CC(=O)NC1CC1 | 4.64 | –
Cc1ccc(C)c(-n2c(N)c(C(=O)NCCc3ccccc3)c3nc4ccccc4nc32)c1 | – | > 50 µM (inactive)
Cc1ccc(C2c3cccn3CCN2C(=O)Nc2ccccc2)cc1 (stereo not drawn) | – | > 50 µM (inactive)
COc1ccc(OC)c(-c2cn3ccn(-c4ccc5c(c4)CCC5)c(=O)c3n2)c1 | – | > 50 µM (inactive)
Cc1nn(-c2ccc([N+](=O)[O-])cc2)c(C)c1-c1nc2ccccc2[nH]1 | 4.48 | –
Cc1ccc2nc(NC(=O)CSc3nnc(-c4ccncc4)n3C3CC3)sc2c1 | 5.42 | –
CCOC(=O)c1c(C)nc2n(Cc3ccccc3)c3ccccc3n12 | 4.64 | –
Cn1c(CN2CCCCCC2)nc2cc(NC(=O)c3ccccc3)ccc21 | – | > 50 µM (inactive)
Fc1cc(F)c2[nH]cc(-c3nnnn3-c3ccc4ccccc4c3)c2c1 | 5.18 | –
CSc1nc(SCC(N)=O)c2c3c(sc2n1)COC(C)(C)C3 | 4.43 | –
O=C(CCc1nnc2n(Cc3ccccc3)c(=O)c3ccccc3n12)N1CCN(c2ccccn2)CC1 | 4.95 | –
CCCCCCCCCC(CCCCCCCCCC(=O)O)O[C@H]1O[C@@H](COC(C)=O)[C@H](O)[C@@H](O)[C@H]1OC(=O)CC(=O)O (stereo partly drawn) | 4.64 | –
Cc1nn(Cc2ccccc2)c(Cl)c1C(=O)NC1CCCc2ccccc21 (stereo not drawn) | – | > 50 µM (inactive)
c1ccc(CCN2CCc3nc4cccnc4cc3C2)nc1 | – | > 50 µM (inactive)
COCCCNC(=O)Cn1c(=O)n(Cc2ccc(C(=O)NCc3ccccc3OC)cc2)c(=O)c2ccccc21 | – | > 50 µM (inactive)
Cc1ccc(-c2ccc(N3CCOCC3)nn2)cc1S(=O)(=O)N1CCOCC1 | – | > 50 µM (inactive)
COc1ccc(CCNC(=O)CSc2cn(CCNC(=O)c3ccc(F)cc3)c3ccccc23)cc1OC | 4.50 | –
CCOC(=O)c1cnn(-c2ccc(C(=O)Nc3ccc(C)c(Cl)c3)cc2)c1N | 5.63 | –
O=C(c1ccc(COc2cccc3ccccc23)o1)N1CCC(Cc2ccccc2)CC1 | – | > 50 µM (inactive)
Cc1ccc(C2c3c(-c4ccccc4O)n[nH]c3C(=O)N2Cc2ccco2)cc1 (stereo not drawn) | 4.55 | –

SMILES | pIC50 | IC50
Cc1cc(/C=C2/C(=N)N3C(c4ccccc4)=CSC3=NC2=O)c(C)n1-c1ccc(F)cc1 | – | > 50 µM (inactive)
CC(=O)N1CCCC(c2nc(C)cc(-c3cc(F)ccc3C(=O)O)n2)C1 (stereo not drawn) | – | > 50 µM (inactive)
COc1ccccc1CNC(=O)C1CCCN(c2nc3ccsc3c(=O)s2)C1 (stereo not drawn) | 5.38 | –
Cc1cccc(Cl)c1NC(=O)Nc1ccc(NC(=O)c2ccccc2O)cc1 | 4.45 | –
COc1ccccc1NC(=O)c1cc(-c2ccccn2)nc2ccccc12 | 5.02 | –
COc1ccc(-n2ccn3c(CCC(=O)NCc4ccc(F)cc4)nnc3c2=O)cc1 | 4.48 | –
COc1ccc(-c2cc(C(C)=O)c(C)n2CCC(=O)Nc2ccc(OC)cc2OC)cc1 | 4.39 | –
COc1ccccc1-c1nc2c3c(C)c(C)n(Cc4cccnc4)c3ncn2n1 | – | > 50 µM (inactive)
C=C(NC(=O)C(=C)NC(=O)c1csc(-c2ccc3c(n2)-c2csc(n2)-c2csc(n2)C(C(C)C2CO2)NC(=O)C(Cc2ccc(O)cc2)NC(=O)c2csc(n2)C(C(O)c2ccccc2)NC(=O)c2nc(sc2C)C(CC(N)=O)NC(=O)c2csc-3n2)n1)C(=O)O (stereo not drawn) | 4.57 | –
Cc1ccc(Cc2nc(-c3ccc(=O)[nH]c3)no2)cc1 | – | > 50 µM (inactive)
Cc1cc2c(cc1C)NC(CC(=O)Nc1ccc(O)cc1)C(=O)N2 (stereo not drawn) | 4.62 | –
COc1cccc(NC(=O)Nc2ccc3nc4n(c(=O)c3c2)CCCC4)c1 | 5.03 | –
COc1cccc(CNC(=O)C2=Cc3cccc(OC)c3OC2)c1 | – | > 50 µM (inactive)
O=C1c2c(O)cccc2C2(Oc3cccc4cccc(c34)O2)C2OC12 (stereo not drawn) | 5.00 | –
CCOC(=O)c1ccc(S(=O)(=O)N2CCC(C(=O)OC(C)C(=O)Nc3cccc([N+](=O)[O-])c3)CC2)cc1 (stereo not drawn) | 5.13 | –
Cc1ccccc1NC(=O)Cn1c(N2CCOCC2)nc2cc(C)n(C)c2c1=O | 4.59 | –
O=C(OCc1ccc(F)cc1)c1ccc2ccccc2n1 | – | > 50 µM (inactive)
COc1ccc(-c2ccnc(-c3ccc(OCc4cccc(F)c4)cc3)n2)cc1 | 4.43 | –
CC[C@H](C)[C@H](NC(=O)[C@H]([C@@H](C)CC)N(C)C(C)=O)C(=O)N[C@H](C(=O)N[C@@H](CC(C)C)C(=O)C1(C)CO1)[C@@H](C)O (stereo partly drawn) | – | > 50 µM (inactive)
CC1Oc2cc3c(-c4c(O)cc(O)c5c(O)c6c(cc45)OC(C)C(C)C6=O)c(O)cc(O)c3c(O)c2C(=O)C1C (stereo not drawn) | 5.90 | –
Cc1ccc2[nH]c(=O)c(CN(Cc3cccnc3)C(=O)c3cccc(Cl)c3)cc2c1 | – | > 50 µM (inactive)
Cc1ccc(OC(=O)c2cn(-c3ccccc3)nc2-c2cccnc2)cc1 | – | > 50 µM (inactive)
COc1ccccc1OCCNC(=O)c1cc(C2CC2)nc2c1cnn2C(C)C | – | > 50 µM (inactive)
Cc1sc2ncnc(OCc3ccc(F)cc3Cl)c2c1C | – | > 50 µM (inactive)

SMILES | pIC50 | IC50
Cc1ccc(NC(=O)c2nnn(-c3ccccc3)n2)cc1F | – | > 50 µM (inactive)
COc1ccc(CN2CCCC23CCCN(C(=O)CCc2cccnc2)C3)cc1F (stereo not drawn) | 4.47 | –
c1ccc(-n2nnc(-c3noc(-c4cccnc4)n3)c2-c2ccncc2)cc1 | 4.55 | –
Cc1ccccc1C(=O)Nc1ccc(Cc2ccc(NC(=O)c3ccccc3C)c(O)c2)cc1O | – | > 50 µM (inactive)
COc1ccc(OC)c(-c2c(C#N)c(C)nc3c2N2CCC3CC2)c1 | 5.16 | –
COc1cccc(/C=C/C(=O)Nc2ccc(N3CCOCC3)cc2)c1OC | – | > 50 µM (inactive)
Cc1cc(C)c2cc3c(nc2c1)OC(=O)N(Cc1ccco1)C3 | 4.51 | –
O=C1COc2ccccc2N1Cc1noc(-c2ccccc2)n1 | – | > 50 µM (inactive)
CO[C@H]1/C=C/OC2(C)Oc3c(C)c(O)c4c(c3C2=O)C2(C=C(NC(=O)/C(C)=C\C=C\[C@H](C)[C@H](O)[C@@H](C)[C@@H](O)[C@@H](C)[C@H](OC(C)=O)C1C)C4=O)OCC(=O)O2 (stereo partly drawn) | 4.37 | –
CCOC(=O)c1ccc(-n2c(=O)c(C#N)cc3c(=O)n4ccccc4nc32)cc1 | – | > 50 µM (inactive)
CN(C(=O)CSc1nnc(-c2cc3ccccc3n2C)o1)c1ccccc1 | – | > 50 µM (inactive)
CN(C)C1CCN(C(=O)c2cc(-c3ccn(-c4ccccc4)n3)n3ccccc23)CC1 | – | > 50 µM (inactive)
CCC1OC(O)(C(C)C(O)C(C)C2OC(=O)/C(C)=C/C(C)=CC(C)C(O)C(C)C/C(C)=C/C=C/C2OC)CC(OC(=O)/C=C/C(=O)NC2=C(O)CCC2=O)C1C (stereo not drawn) | – | > 50 µM (inactive)
Cc1cc(C)c2nc3c(cc2c1)CN(Cc1ccco1)C(=O)O3 | – | > 50 µM (inactive)
CCn1cc(-c2nc(-c3ccccc3)no2)c(=O)c2cc(F)ccc21 | 5.63 | –
CCOc1ccc(NC(=O)CSc2nc3n[nH]c(C)c3c(=N)n2-c2ccc(OC)cc2)cc1 | – | > 50 µM (inactive)
O=C(NCc1ccccc1)c1ccc(-c2ccc(N3CCCC3)nn2)cc1 | – | > 50 µM (inactive)
O=C(c1ccco1)N1CCCC2(C1)Nc1cccnc1NC2=NC1CCCC1 (stereo not drawn) | – | > 50 µM (inactive)
O=C(NCc1ccccc1Cl)c1ccc2cn[nH]c2c1 | – | > 50 µM (inactive)
C=C1CCC2[C@](C)(CCC[C@]2(C)C(=O)OC)[C@H]1CCc1ccoc1C[N+](C)(C)Cc1ccccc1 (stereo partly drawn) | – | > 50 µM (inactive)
COc1cccc(NC(=O)C2CCC(CNS(=O)(=O)c3ccc4c(c3)C(C)(C)C(=O)N4C)CC2)c1 (stereo not drawn) | – | > 50 µM (inactive)

Source: PubChem BioAssay AID1645864 (Buhrlage Lab, Dana-Farber Cancer Institute and Novartis …, 2021)
